# Measurements as given in PubChem BioAssay (NCI).
# Where “and” joins values, the source holds several entries; their conditions need not be identical. Equal values may be shown once.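 These data come from cells grown in 96-well plates and exposed to compound for 48 hours at five concentrations. At the GI50, growth is halved. TGI marks complete inhibition of growth.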
# Key:
# Test in all cases: growth of human tumour cells (NCI), 48 h
# A498 renal = tested on: A498 renal
# UACC-62 melanoma = tested on: UACC-62 melanoma
# SF-539 CNS = tested on: SF-539 CNS
# PC-3 prostate = tested on: PC-3 prostate
# K-562 leukemia = tested on: K-562 leukemia
# SK-MEL-5 melanoma = tested on: SK-MEL-5 melanoma
# HCT-116 colon = tested on: HCT-116 colon
# COLO 205 colon = tested on: COLO 205 colon
# DMS 273 small cell lung = tested on: DMS 273 small cell lung
# DLD-1 colon = tested on: DLD-1 colon
# HL-60(TB) leukemia = tested on: HL-60(TB) leukemia
# HCT-15 colon = tested on: HCT-15 colon
# MDA-N = tested on: MDA-N
# KM20L2 colon = tested on: KM20L2 colon
# EKVX NSCLC = tested on: EKVX NSCLC
# HOP-18 NSCLC = tested on: HOP-18 NSCLC
# UACC-257 melanoma = tested on: UACC-257 melanoma
# HOP-62 NSCLC = tested on: HOP-62 NSCLC
# HOP-92 NSCLC = tested on: HOP-92 NSCLC
# CCRF-CEM leukemia = tested on: CCRF-CEM leukemia
# SK-MEL-28 melanoma = tested on: SK-MEL-28 melanoma
# SW-620 colon = tested on: SW-620 colon
# ACHN renal = tested on: ACHN renal
# MDA-MB-231 breast = tested on: MDA-MB-231 breast
# U251 CNS = tested on: U251 CNS
# A549 NSCLC = tested on: A549 NSCLC
# NCI-H460 lung = tested on: NCI-H460 lung
# SK-MEL-2 melanoma = tested on: SK-MEL-2 melanoma
# SN12C renal = tested on: SN12C renal
# HCC-2998 colon = tested on: HCC-2998 colon
# HT29 colon = tested on: HT29 colon
# SNB-19 CNS = tested on: SNB-19 CNS
# MDA-MB-435 = tested on: MDA-MB-435
# OVCAR-3 ovarian = tested on: OVCAR-3 ovarian
# CAKI-1 renal = tested on: CAKI-1 renal
# M14 melanoma = tested on: M14 melanoma
# LOX IMVI melanoma = tested on: LOX IMVI melanoma
# M19-MEL melanoma = tested on: M19-MEL melanoma
# MOLT-4 leukemia = tested on: MOLT-4 leukemia
# SF-295 CNS = tested on: SF-295 CNS
# SNB-78 CNS = tested on: SNB-78 CNS
# NCI-H23 lung = tested on: NCI-H23 lung
# MALME-3M melanoma = tested on: MALME-3M melanoma
# DMS 114 small cell lung = tested on: DMS 114 small cell lung
# RPMI-8226 leukemia = tested on: RPMI-8226 leukemia
# MCF7 breast = tested on: MCF7 breast
# IGROV1 ovarian = tested on: IGROV1 ovarian
# SK-OV-3 ovarian = tested on: SK-OV-3 ovarian
# DU-145 prostate = tested on: DU-145 prostate
# NCI-H226 lung = tested on: NCI-H226 lung
# 786-0 renal = tested on: 786-0 renal
# UO-31 renal = tested on: UO-31 renal
# OVCAR-4 ovarian = tested on: OVCAR-4 ovarian
# KM12 colon = tested on: KM12 colon
# OVCAR-5 ovarian = tested on: OVCAR-5 ovarian
# RXF 393 renal = tested on: RXF 393 renal
# LXFL 529 NSCLC = tested on: LXFL 529 NSCLC
# XF 498 CNS = tested on: XF 498 CNS
# SNB-75 CNS = tested on: SNB-75 CNS
# OVCAR-8 ovarian = tested on: OVCAR-8 ovarian
# TK-10 renal = tested on: TK-10 renal
# NCI-H522 lung = tested on: NCI-H522 lung
# SF-268 CNS = tested on: SF-268 CNS
# SR leukemia = tested on: SR leukemia
smiles,measurement,setting,value
COc1cc(C2C3=C(COC3=O)Oc3cc4c(cc32)OCO4)cc(OC)c1OC (stereo not given),GI50,A498 renal,36.3 nM
same,TGI,A498 renal,18.6 nM
same,TGI,UACC-62 melanoma,> 31600 nM
same,GI50,SF-539 CNS,14.9 nM
same,TGI,SF-539 CNS,49.7 nM and 42.7 nM
same,GI50,PC-3 prostate,20.3 nM
same,TGI,PC-3 prostate,313 nM
same,GI50,K-562 leukemia,32 nM
same,TGI,K-562 leukemia,131 nM
same,GI50,SK-MEL-5 melanoma,< 16.2 nM
same,TGI,SK-MEL-5 melanoma,189 nM and 681 nM
same,TGI,HCT-116 colon,235 nM and 1890 nM
same,GI50,COLO 205 colon,< 13.8 nM
same,TGI,COLO 205 colon,92.9 nM and 38.5 nM
same,TGI,DMS 273 small cell lung,12700 nM
same,TGI,DLD-1 colon,> 100000 nM
same,TGI,HL-60(TB) leukemia,50.2 nM and 41.3 nM
same,GI50,HCT-15 colon,35.4 nM
same,TGI,MDA-N,53.2 nM
same,TGI,KM20L2 colon,42.1 nM and 28.3 nM
same,GI50,EKVX NSCLC,660 nM
same,GI50,HOP-18 NSCLC,> 100000 nM
same,TGI,HOP-18 NSCLC,> 100000 nM
same,TGI,UACC-257 melanoma,2860 nM
same,GI50,HOP-62 NSCLC,20 nM
same,TGI,HOP-62 NSCLC,2140 nM
same,GI50,HOP-92 NSCLC,< 11.7 nM
same,TGI,HOP-92 NSCLC,88.2 nM and 90.1 nM
same,GI50,CCRF-CEM leukemia,22.1 nM
same,TGI,CCRF-CEM leukemia,338 nM and 62.5 nM
same,GI50,SK-MEL-28 melanoma,11100 nM
same,TGI,SK-MEL-28 melanoma,> 31600 nM
same,TGI,SW-620 colon,> 31600 nM
same,GI50,ACHN renal,< 15 nM
same,TGI,ACHN renal,16400 nM
same,TGI,MDA-MB-231 breast,694 nM
same,GI50,U251 CNS,< 21.3 nM
same,GI50,A549 NSCLC,< 20.4 nM
same,TGI,A549 NSCLC,14200 nM
same,GI50,NCI-H460 lung,< 18.5 nM
same,GI50,SK-MEL-2 melanoma,262 nM
same,GI50,SN12C renal,37 nM
same,TGI,SN12C renal,20900 nM
same,GI50,HCC-2998 colon,21.4 nM
same,TGI,HCC-2998 colon,62 nM
same,GI50,HT29 colon,10.5 nM and 26 nM
same,TGI,HT29 colon,44.4 nM
same,GI50,SNB-19 CNS,47.4 nM
same,TGI,SNB-19 CNS,17400 nM
same,GI50,MDA-MB-435,48.5 nM
same,TGI,MDA-MB-435,80.4 nM and 291 nM
same,TGI,OVCAR-3 ovarian,70.9 nM and 88.3 nM
same,TGI,CAKI-1 renal,134 nM
same,GI50,M14 melanoma,< 18.1 nM
same,TGI,M14 melanoma,> 31600 nM
same,GI50,LOX IMVI melanoma,9.94 nM
same,TGI,LOX IMVI melanoma,> 31600 nM
same,TGI,M19-MEL melanoma,> 100000 nM
same,TGI,MOLT-4 leukemia,15100 nM
same,TGI,SF-295 CNS,57.5 nM
same,TGI,SNB-78 CNS,50600 nM
same,GI50,NCI-H23 lung,28 nM
same,GI50,MALME-3M melanoma,36 nM
same,TGI,DMS 114 small cell lung,38.4 nM and 13.1 nM
same,GI50,RPMI-8226 leukemia,< 17.6 nM
same,TGI,RPMI-8226 leukemia,> 31600 nM
same,GI50,MCF7 breast,20.4 nM
same,GI50,IGROV1 ovarian,18.1 nM
same,TGI,IGROV1 ovarian,13300 nM
same,GI50,SK-OV-3 ovarian,32 nM
same,TGI,SK-OV-3 ovarian,13200 nM
same,GI50,DU-145 prostate,22 nM
same,TGI,DU-145 prostate,87.5 nM and 67.1 nM
same,TGI,NCI-H226 lung,230 nM
same,GI50,786-0 renal,45.6 nM
same,GI50,UO-31 renal,< 31.5 nM
same,TGI,UO-31 renal,16100 nM
same,TGI,OVCAR-4 ovarian,28500 nM
same,GI50,KM12 colon,10.1 nM
same,TGI,KM12 colon,144 nM
CC(C)(C)c1ccc2c(c1)C(O)(c1ccccc1)c1cc(C(C)(C)C)ccc1C2(O)C(F)(F)F (stereo not given),TGI,A498 renal,3250 nM
same,TGI,OVCAR-5 ovarian,3050 nM
same,TGI,UACC-62 melanoma,3660 nM
same,TGI,SF-539 CNS,3410 nM
same,TGI,K-562 leukemia,5620 nM
same,TGI,RXF 393 renal,3870 nM
same,TGI,HCT-116 colon,3370 nM
same,TGI,COLO 205 colon,3270 nM
same,TGI,DMS 273 small cell lung,3550 nM
same,TGI,DLD-1 colon,4150 nM
same,TGI,LXFL 529 NSCLC,4390 nM
same,TGI,HL-60(TB) leukemia,5150 nM
same,TGI,HCT-15 colon,3830 nM
same,TGI,KM20L2 colon,3050 nM
same,TGI,EKVX NSCLC,9850 nM
same,TGI,HOP-18 NSCLC,5060 nM
same,TGI,UACC-257 melanoma,4850 nM
same,TGI,XF 498 CNS,2900 nM
same,TGI,SNB-75 CNS,5480 nM
same,TGI,HOP-62 NSCLC,2940 nM
same,TGI,OVCAR-8 ovarian,4290 nM
same,TGI,HOP-92 NSCLC,3790 nM
same,TGI,CCRF-CEM leukemia,5570 nM
same,TGI,SK-MEL-28 melanoma,4540 nM
same,TGI,SW-620 colon,4230 nM
same,TGI,TK-10 renal,11400 nM
same,TGI,ACHN renal,5770 nM
same,TGI,U251 CNS,3310 nM
same,TGI,A549 NSCLC,3700 nM
same,TGI,NCI-H522 lung,3450 nM
same,TGI,NCI-H460 lung,3500 nM
same,TGI,SK-MEL-2 melanoma,3630 nM
same,TGI,SN12C renal,3140 nM
same,TGI,HCC-2998 colon,3660 nM
same,TGI,HT29 colon,2990 nM
same,TGI,SNB-19 CNS,6320 nM
same,TGI,OVCAR-3 ovarian,4290 nM
same,TGI,CAKI-1 renal,4730 nM
same,TGI,M14 melanoma,3590 nM
same,TGI,LOX IMVI melanoma,3320 nM
same,TGI,M19-MEL melanoma,3700 nM
same,TGI,MOLT-4 leukemia,4710 nM
same,TGI,SF-295 CNS,2880 nM
same,TGI,SF-268 CNS,4480 nM
same,TGI,NCI-H23 lung,4390 nM
same,TGI,MALME-3M melanoma,5560 nM
same,TGI,DMS 114 small cell lung,5210 nM
same,TGI,SR leukemia,5120 nM
same,TGI,IGROV1 ovarian,4940 nM
same,TGI,SK-OV-3 ovarian,8570 nM
same,TGI,NCI-H226 lung,2350 nM
same,TGI,786-0 renal,3770 nM
same,TGI,UO-31 renal,4580 nM
same,TGI,OVCAR-4 ovarian,3700 nM
same,TGI,KM12 colon,4870 nM
